Measurements as given in ChEMBL document CHEMBL1127121, “Benzofuran based angiotensin II antagonists related to GR117289: Part III; GR138950, a triflamide with high oral bioavailability” (Bioorg Med Chem Lett, 1993).

Key:
[1] = target: T1, Type-1 angiotensin II receptor (Oryctolagus cuniculus) (UniProt P34976); test: Affinity for Angiotensin II receptor, type 1 by measuring its ability to antagonise the contractile effect of AngII in rabbit isolated thoracic aorta; format: functional, tissue-based
T1 sequence (whole entry): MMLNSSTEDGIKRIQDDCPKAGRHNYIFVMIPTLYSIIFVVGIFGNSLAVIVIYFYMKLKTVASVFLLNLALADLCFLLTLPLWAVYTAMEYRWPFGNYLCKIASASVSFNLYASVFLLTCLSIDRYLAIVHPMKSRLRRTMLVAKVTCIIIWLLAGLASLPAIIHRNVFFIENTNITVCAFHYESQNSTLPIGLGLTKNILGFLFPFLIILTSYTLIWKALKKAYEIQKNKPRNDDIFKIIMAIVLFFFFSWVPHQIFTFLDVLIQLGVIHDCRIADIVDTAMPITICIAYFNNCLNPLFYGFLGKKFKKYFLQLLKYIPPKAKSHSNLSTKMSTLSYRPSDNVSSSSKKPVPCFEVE

[2] = The compound was evaluated for volume of distribution in rat; format: ADME, organism-based; settings: in vivo
[3] = Bioavailability in rat; format: ADME, organism-based; settings: in vivo
[4] = The compound was evaluated for plasma clearance in rat; format: ADME, organism-based; settings: read-out: Clp
[5] = The compound was evaluated for plasma half life period in rat; format: ADME, organism-based

pKB [1] | Vd [2] | bioavailability [3] | clearance [4] | half-life [5] | Structure (SMILES)
9.5 |  |  |  |  | CCNC(=O)c1c(C)nc(CC)n1Cc1ccc2oc(-c3ccccc3NS(=O)(=O)C(F)(F)F)c(Br)c2c1
 | 0.5 L/kg | 3% | 0.8 mL/min/kg | 480 min | CCCCc1nc(Cl)c(C(=O)O)n1Cc1ccc2oc(-c3ccccc3-c3nn[nH]n3)c(Br)c2c1 [ZOLASARTAN]
< 8 |  |  |  |  | CCc1nc(CC(C)C)c(C(=O)NC)n1Cc1ccc2oc(-c3ccccc3NS(=O)(=O)C(F)(F)F)c(Br)c2c1
9.2 |  |  |  |  | CCc1nc(C)c(C(=O)NCC(F)(F)F)n1Cc1ccc2oc(-c3ccccc3NS(=O)(=O)C(F)(F)F)c(Br)c2c1
9.7 |  |  |  |  | CCc1nc(C2CC2)c(C(=O)NC)n1Cc1ccc2oc(-c3ccccc3NS(=O)(=O)C(F)(F)F)c(Br)c2c1
9 | 2.4 L/kg | 79% | 8.9 mL/min/kg | 192 min | CCc1nc(C2CC2)c(C(N)=O)n1Cc1ccc2oc(-c3ccccc3NS(=O)(=O)C(F)(F)F)c(Br)c2c1 [SAPRISARTAN]
9 | 4.3 L/kg | 95% | 42 mL/min/kg | 72 min | CCc1nc(C)c(C(=O)NC)n1Cc1ccc2oc(-c3ccccc3NS(=O)(=O)C(F)(F)F)c(Br)c2c1
9.1 |  |  |  |  | CCc1nc(C)c(C(=O)N(C)C)n1Cc1ccc2oc(-c3ccccc3NS(=O)(=O)C(F)(F)F)c(Br)c2c1
9 |  |  |  |  | CCc1nc(CC)n(Cc2ccc3oc(-c4ccccc4NS(=O)(=O)C(F)(F)F)c(Br)c3c2)c1C(=O)NC
9 |  |  |  |  | CCc1nc(C)c(C(N)=O)n1Cc1ccc2oc(-c3ccccc3NS(=O)(=O)C(F)(F)F)c(Br)c2c1
8.1 |  |  |  |  | CCc1nc(C(C)C)c(C(=O)NC)n1Cc1ccc2oc(-c3ccccc3NS(=O)(=O)C(F)(F)F)c(Br)c2c1
